Drawing on patent publication US20210317134A1, “UBIQUITIN-SPECIFIC-PROCESSING PROTEASE 7 (USP7) MODULATORS AND USES THEREOF” (RAPT THERAPEUTICS, INC., priority 2019, published 2021), this text covers IC50 for 30 compounds.

The target of the test is USP7 (Homo sapiens, UniProt Q93009). The test can be described thus: USP7 inhibitory potency (Table 1). Type of test: biochemical.
USP7, sequence (Q93009 whole entry): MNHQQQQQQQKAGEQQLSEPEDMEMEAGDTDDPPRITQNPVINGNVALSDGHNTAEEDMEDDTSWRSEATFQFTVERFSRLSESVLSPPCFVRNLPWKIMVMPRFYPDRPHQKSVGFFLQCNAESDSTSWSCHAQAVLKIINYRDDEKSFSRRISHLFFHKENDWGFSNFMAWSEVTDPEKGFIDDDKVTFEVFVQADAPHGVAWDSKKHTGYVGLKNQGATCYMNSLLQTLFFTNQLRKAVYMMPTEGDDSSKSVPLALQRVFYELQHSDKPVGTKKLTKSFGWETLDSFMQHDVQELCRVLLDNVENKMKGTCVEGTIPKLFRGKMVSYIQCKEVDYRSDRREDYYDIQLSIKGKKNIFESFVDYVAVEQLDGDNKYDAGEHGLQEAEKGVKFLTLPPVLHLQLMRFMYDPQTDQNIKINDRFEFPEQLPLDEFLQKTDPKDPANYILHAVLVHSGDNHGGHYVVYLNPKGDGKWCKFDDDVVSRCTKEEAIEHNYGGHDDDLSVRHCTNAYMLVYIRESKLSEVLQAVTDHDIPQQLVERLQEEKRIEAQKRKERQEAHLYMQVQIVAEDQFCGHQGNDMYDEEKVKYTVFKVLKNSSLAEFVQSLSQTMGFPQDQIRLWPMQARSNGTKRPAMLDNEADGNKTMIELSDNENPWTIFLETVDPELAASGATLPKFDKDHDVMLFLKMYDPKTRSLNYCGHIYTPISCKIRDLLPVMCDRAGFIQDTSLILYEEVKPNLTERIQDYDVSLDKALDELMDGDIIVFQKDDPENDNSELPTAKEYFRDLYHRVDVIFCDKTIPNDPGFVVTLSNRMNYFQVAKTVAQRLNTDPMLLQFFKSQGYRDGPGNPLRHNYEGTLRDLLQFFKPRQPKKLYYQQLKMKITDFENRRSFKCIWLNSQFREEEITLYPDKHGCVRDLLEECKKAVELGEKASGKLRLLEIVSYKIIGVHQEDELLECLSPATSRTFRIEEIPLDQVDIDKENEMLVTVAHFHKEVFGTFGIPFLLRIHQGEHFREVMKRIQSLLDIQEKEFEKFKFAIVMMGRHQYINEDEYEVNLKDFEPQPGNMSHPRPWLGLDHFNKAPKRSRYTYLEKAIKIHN
`CN(C)S(=O)(=O)NCCc1cc2nccc(-c3cc(Cl)cc4c3O[C@@H](C(=O)N3CCNCC3)C4)c2s1` [(R)-N-(2-(7-(5-chloro-2-(piperazine-1-carbonyl)-2,3-dihydrobenzofuran-7-yl)thieno[3,2-b]pyridin-2-yl)ethyl)dimethylamimosulfonylurea] displayed an IC50 of under 1000 nM.
Take `CS(=O)(=O)NCCc1cc2nccc(-c3cc(Cl)cc4c3O[C@@H](C(=O)N3CCNCC3)C4)c2s1` [(R)-N-(2-(7-(5-chloro-2-(piperazine-1-carbonyl)-2,3-dihydrobenzofuran-7-yl)thieno[3,2-b]pyridin-2-yl)ethyl)methanesulfonamide]: the IC50 is under 1000 nM.
With `CC(C)S(=O)(=O)NCCc1cc2nccc(-c3cc(Cl)cc4c3O[C@@H](C(=O)N3CCNCC3)C4)c2s1` [(R)-N-(2-(7-(5-chloro-2-(piperazine-1-carbonyl)-2,3-dihydrobenzofuran-7-yl)thieno[3,2-b]pyridin-2-yl)ethyl)propane-2-sulfonamide], the IC50 was under 1000 nM.
Compound `CC(=O)NC(C)(C)c1cc2nccc(-c3cc(Cl)cc4c3O[C@@H](C(=O)N3CCNCC3)C4)c2s1` [(R)-N-(2-(7-(5-chloro-2-(piperazine-1-carbonyl)-2,3-dihydrobenzofuran-7-yl)thieno[3,2-b]pyridin-2-yl)propan-2-yl)acetamide] displayed an IC50 of 1000 to 10000 nM.
`CC(=O)NCc1ccc2c(-c3cc(Cl)cc4c3O[C@@H](c3onc5c3CNCC5)C4)ccnc2c1` [(R)-N-((4-(5-chloro-2-(4,5,6,7-tetrahydroisoxazolo[4,3-c]pyridin-3-yl)-2,3-dihydrobenzofuran-7-yl)quinolin-7-yl)methyl)acetamide] came in with an IC50 of 1000 to 10000 nM.
In turn, `CS(=O)(=O)NCc1ccc2c(-c3cc(Cl)cc4c3O[C@@H](c3onc5c3CNCC5)C4)ccnc2c1` [(R)-N-((4-(5-chloro-2-(4,5,6,7-tetrahydroisoxazolo[4,3-c]pyridin-3-yl)-2,3-dihydrobenzofuran-7-yl)quinolin-7-yl)methyl)methanesulfonamide] had an IC50 of 1000 to 10000 nM.
As for `CC(=O)NCc1cc2ncnc(-c3cc(Cl)cc4c3O[C@@H](c3onc5c3CNCC5)C4)c2s1` [(R)-N-((4-(5-chloro-2-(4,5,6,7-tetrahydroisoxazolo[4,3-c]pyridin-3-yl)-2,3-dihydrobenzofuran-7-yl)thieno[3,2-d]pyrimidin-6-yl)methyl)acetamide], the IC50 was under 1000 nM.
Regarding `CC(=O)NCc1cc2nccc(-c3cc(Cl)cc4c3O[C@@H](c3c5c(nn3C)CCNC5)C4)c2s1` [(R)-N-((7-(5-chloro-2-(2-methyl-4,5,6,7-tetrahydro-2H-pyrazolo[4,3-c]pyridin-3-yl)-2,3-dihydrobenzofuran-7-yl)thieno[3,2-b]pyridin-2-yl)methyl)acetamide], the IC50 was under 1000 nM.
In the case of `FC(F)(F)CNCc1cc2nccc(-c3cc(Cl)cc4c3O[C@@H](c3onc5c3CNCC5)C4)c2s1` [(R)-N-((7-(5-chloro-2-(4,5,6,7-tetrahydroisoxazolo[4,3-c]pyridin-3-yl)-2,3-dihydrobenzofuran-7-yl)thieno[3,2-b]pyridin-2-yl)methyl)-2,2,2-trifluoroethan-1-amine], the IC50 was under 1000 nM.
In the case of `CC(=O)NCc1cc2nccc(-c3cc(Cl)cc4c3O[C@@H](c3onc5c3CNCC5)C4)c2s1` [(R)-N-((7-(5-chloro-2-(4,5,6,7-tetrahydroisoxazolo[4,3-c]pyridin-3-yl)-2,3-dihydrobenzofuran-7-yl)thieno[3,2-b]pyridin-2-yl)methyl)acetamide], the IC50 was under 1000 nM.
For the compound `CC(C)C(=O)NCc1cc2nccc(-c3cc(Cl)cc4c3O[C@@H](c3onc5c3CNCC5)C4)c2s1` [(R)-N-((7-(5-chloro-2-(4,5,6,7-tetrahydroisoxazolo[4,3-c]pyridin-3-yl)-2,3-dihydrobenzofuran-7-yl)thieno[3,2-b]pyridin-2-yl)methyl)isobutyramide], the IC50 is under 1000 nM.
Compound `CS(=O)(=O)NCc1cc2nccc(-c3cc(Cl)cc4c3O[C@@H](c3onc5c3CNCC5)C4)c2s1` [(R)-N-((7-(5-chloro-2-(4,5,6,7-tetrahydroisoxazolo[4,3-c]pyridin-3-yl)-2,3-dihydrobenzofuran-7-yl)thieno[3,2-b]pyridin-2-yl)methyl)methanesulfonamide] showed an IC50 of under 1000 nM.
`CCC(=O)NCc1cc2nccc(-c3cc(Cl)cc4c3O[C@@H](c3onc5c3CNCC5)C4)c2s1` [(R)-N-((7-(5-chloro-2-(4,5,6,7-tetrahydroisoxazolo[4,3-c]pyridin-3-yl)-2,3-dihydrobenzofuran-7-yl)thieno[3,2-b]pyridin-2-yl)methyl)propionamide] had an IC50 of under 1000 nM.
On to `CC(=O)N(C)Cc1cc2nccc(-c3cc(Cl)cc4c3O[C@@H](C(=O)N3CCNCC3)C4)c2s1` [(R)-N-((7-(5-chloro-2-(piperazine-1-carbonyl)-2,3-dihydrobenzofuran-7-yl)thieno[3,2-b]pyridin-2-yl)methyl)-N-methylacetamide], for which the IC50 was under 1000 nM.
Then `CC(=O)NCc1cc2nccc(-c3cc(Cl)cc4c3O[C@@H](C(=O)N3CCNCC3)C4)c2s1` [(R)-N-((7-(5-chloro-2-(piperazine-1-carbonyl)-2,3-dihydrobenzofuran-7-yl)thieno[3,2-b]pyridin-2-yl)methyl)acetamide], with under 1000 nM; and `CS(=O)(=O)NCc1cc2nccc(-c3cc(Cl)cc4c3O[C@@H](C(=O)N3CCNCC3)C4)c2s1` [(R)-N-((7-(5-chloro-2-(piperazine-1-carbonyl)-2,3-dihydrobenzofuran-7-yl)thieno[3,2-b]pyridin-2-yl)methyl)methanesulfonamide], with under 1000 nM; and `O=C([C@H]1Cc2cc(Cl)cc(-c3ccnc4cc(CO)sc34)c2O1)N1CCC(N2CCCCC2)CC1` [(R)-[1,4′-bipiperidin]-1′-yl(5-chloro-7-(2-(hydroxymethyl)thieno[3,2-b]pyridin-7-yl)-2,3-dihydrobenzofuran-2-yl)methanone], with under 1000 nM.
Then `O=C([C@H]1Cc2cc(Cl)cc(-c3ccnc4ccsc34)c2O1)N1CCC(N2CCCCC2)CC1` [(R)-[1,4′-bipiperidin]-1′-yl(5-chloro-7-(thieno[3,2-b]pyridin-7-yl)-2,3-dihydrobenzofuran-2-yl)methanone], with 1000 to 10000 nM; and `CC[C@H](O)c1cc2ncnc(-c3cc(Cl)cc4c3O[C@@H](c3onc5c3CNCC5)C4)c2s1` [(S)-1-(4-((R)-5-chloro-2-(4,5,6,7-tetrahydroisoxazolo[4,3-c]pyridin-3-yl)-2,3-dihydrobenzofuran-7-yl)thieno[3,2-d]pyrimidin-6-yl)propan-1-ol], with under 1000 nM; and `CC[C@H](O)c1cc2nccc(-c3cc(Cl)cc4c3O[C@@H](c3onc5c3CNCC5)C4)c2s1` [(S)-1-(7-((R)-5-chloro-2-(4,5,6,7-tetrahydroisoxazolo[4,3-c]pyridin-3-yl)-2,3-dihydrobenzofuran-7-yl)thieno[3,2-b]pyridin-2-yl)propan-1-ol], with under 1000 nM.
`CC[C@H](O)c1cc2nccc(-c3cc(Cl)cc4c3O[C@@](C)(c3onc5c3CNCC5)C4)c2s1` [(S)-1-(7-((R)-5-chloro-2-methyl-2-(4,5,6,7-tetrahydroisoxazolo[4,3-c]pyridin-3-yl)-2,3-dihydrobenzofuran-7-yl)thieno[3,2-b]pyridin-2-yl)propan-1-ol] had an IC50 of under 1000 nM.
With `CC[C@H](O)c1cc2nccc(-c3cc(Cl)cc4c3O[C@](C)(c3onc5c3CNCC5)C4)c2s1` [(S)-1-(7-((S)-5-chloro-2-methyl-2-(4,5,6,7-tetrahydroisoxazolo[4,3-c]pyridin-3-yl)-2,3-dihydrobenzofuran-7-yl)thieno[3,2-b]pyridin-2-yl)propan-1-ol], the IC50 fell in the range of 1000 to 10000 nM.
With `C[C@H]1CCN(Cc2cc3nccc(-c4cc(Cl)cc5c4O[C@@H](C(=O)N4CCNCC4)C5)c3s2)C1=O` [(S)-1-((7-((R)-5-chloro-2-(piperazine-1-carbonyl)-2,3-dihydrobenzofuran-7-yl)thieno[3,2-b]pyridin-2-yl)methyl)-3-methylpyrrolidin-2-one], the IC50 was under 1000 nM.
To `Clc1cc2c(c(-c3ccnc4ccsc34)c1)O[C@H](c1onc3c1CNCC3)C2` [(S)-3-(5-chloro-7-(thieno[3,2-b]pyridin-7-yl)-2,3-dihydrobenzofuran-2-yl)-4,5,6,7-tetrahydroisoxazolo[4,3-c]pyridine] belongs under 1000 nM.
`O[C@@]1(c2cc3nccc(-c4cc(Cl)cc5c4O[C@@H](c4onc6c4CNCC6)C5)c3s2)CCOC1` [(S)-3-(7-((R)-5-chloro-2-(4,5,6,7-tetrahydroisoxazolo[4,3-c]pyridin-3-yl)-2,3-dihydrobenzofuran-7-yl)thieno[3,2-b]pyridin-2-yl)tetrahydrofuran-3-ol]: the IC50 was under 1000 nM.
`O=C([C@@H]1Cc2cc(Cl)cc(-c3ccnc4cc(CO)sc34)c2O1)N1CCNCC1` [(S)-(5-chloro-7-(2-(hydroxymethyl)thieno[3,2-b]pyridin-7-yl)-2,3-dihydrobenzofuran-2-yl)(piperazin-1-yl)methanone]: the IC50 was in the range of 1000 to 10000 nM.
`COC(=O)NCc1cc2nccc(-c3cc(Cl)cc4c3O[C@@H](c3onc5c3CNCC5)C4)c2s1` [Methyl (R)-((7-(5-chloro-2-(4,5,6,7-tetrahydroisoxazolo[4,3-c]pyridin-3-yl)-2,3-dihydrobenzofuran-7-yl)thieno[3,2-b]pyridin-2-yl)methyl)carbamate] yielded an IC50 of under 1000 nM.
Turning to `CC(=O)NC(C)c1cc2nccc(-c3cc(Cl)cc4c3O[C@@H](c3c5c(nn3C)CCNC5)C4)c2s1` (stereo partly drawn) [N-(1-(7-((R)-5-chloro-2-(2-methyl-4,5,6,7-tetrahydro-2H-pyrazolo[4,3-c]pyridin-3-yl)-2,3-dihydrobenzofuran-7-yl)thieno[3,2-b]pyridin-2-yl)ethyl)acetamide], the IC50 was under 1000 nM.
Compound `CC(=O)NC(C)c1cc2nccc(-c3cc(Cl)cc4c3O[C@@H](c3onc5c3CNCC5)C4)c2s1` (stereo partly drawn) [N-(1-(7-((R)-5-chloro-2-(4,5,6,7-tetrahydroisoxazolo[4,3-c]pyridin-3-yl)-2,3-dihydrobenzofuran-7-yl)thieno[3,2-b]pyridin-2-yl)ethyl)acetamide] returned an IC50 of under 1000 nM.
On to `CC(=O)NC(C)c1cc2nccc(-c3cc(Cl)cc4c3O[C@@H](C(=O)N3CCNCC3)C4)c2s1` (stereo partly drawn) [N-(1-(7-((R)-5-chloro-2-(piperazine-1-carbonyl)-2,3-dihydrobenzofuran-7-yl)thieno[3,2-b]pyridin-2-yl)ethyl)acetamide], for which the IC50 was under 1000 nM.

What is called IC50 is the point on the concentration scale where inhibition reaches its midpoint. Low values mean higher potency, high ones lower potency.
